From patent US8304419B2, “Chemical compounds” (priority 2007, dated 2012)
Where a name gives a salt, the structure may show the parent alone.

Tested on: HIV wild type (WTRVA)
Test: HeLa cell assay, wild type virus (WTRVA)
Format: cell-based, HIV-1
Design: scale not given here
Conditions: HeLa-CD4-LTR-β-gal cells, wild type virus; trifluoroacetate; read-out: WTRVA activity level

Structure (SMILES) | IC50 [nM]
N#Cc1cc(Cl)cc(Oc2c(Cl)ccc(CNC(=O)c3[nH]c4ccccc4c3Br)c2F)c1 [Example 54, 3-bromo-N-({4-chloro-3-[(3-chloro-5-cyanophenyl)oxy]-2-fluorophenyl}methyl)-1H-indole-2-carboxamide trifluoroacetate] | < 10

Same assay, conditions: Human immunodeficiency virus 1, HeLa, HeLa cell assay; read-out: IC50 against WTRVA

Structure (SMILES) | IC50 [nM]
CCc1cc(Cl)cc(Oc2c(Cl)ccc(CNC(=O)c3[nH]cnc3Cl)c2F)c1 [Example 290, 4-chloro-N-({4-chloro-3-[(3-chloro-5-ethylphenyl)oxy]-2-fluorophenyl}methyl)-1H-imidazole-5-carboxamide] | < 10
C=Cc1ccc(CNC(=O)c2[nH]c(C)nc2Cl)c(F)c1Oc1cc(Cl)cc(C#N)c1 [Example 269, 4-Chloro-N-({3-[(3-chloro-5-cyanophenyl)oxy]-4-ethenyl-2-fluorophenyl}methyl)-2-methyl-1H-imidazole-5-carboxamide] | < 10
CNc1nc(Cl)c(C(=O)NCc2ccc(Cl)c(Oc3cc(Cl)cc(C#N)c3)c2F)[nH]1 [Example 363, 4-chloro-N-({4-chloro-3-[(3-chloro-5-cyanophenyl)oxy]-2-fluorophenyl}methyl)-2-(methylamino)-1H-imidazole-5-carboxamide trifluoroacetate] | < 10
CC#Cc1cc(C#N)cc(Oc2c(Cl)ccc(CNC(=O)c3[nH]cnc3Cl)c2F)c1 [Example 317, 4-chloro-N-[(4-chloro-3-{[3-cyano-5-(1-propyn-1-yl)phenyl]oxy}-2-fluorophenyl)methyl]-1H-imidazole-5-carboxamide] | < 10
C#Cc1cc(C#N)cc(Oc2c(Cl)ccc(CNC(=O)c3[nH]cnc3Cl)c2F)c1 [Example 310, 4-chloro-N-({4-chloro-3-[(3-cyano-5-ethynylphenyl)oxy]-2-fluorophenyl}methyl)-1H-imidazole-5-carboxamide] | < 10
CCc1ccc(CNC(=O)c2[nH]c(C)nc2Cl)c(F)c1Oc1cc(Cl)cc(C#N)c1 [Example 249, 4-chloro-N-({3-[(3-chloro-5-cyanophenyl)oxy]-4-ethyl-2-fluorophenyl}methyl)-2-methyl-1H-imidazole-5-carboxamide] | < 10
Cc1cc(C#N)cc(Oc2c(Cl)ccc(CNC(=O)c3[nH]c(C)nc3Cl)c2F)c1 [Example 305, 4-chloro-N-({4-chloro-3-[(3-cyano-5-methylphenyl)oxy]-2-fluorophenyl}methyl)-2-methyl-1H-imidazole-5-carboxamide trifluoroacetate] | < 10
N#Cc1cc(Oc2c(Cl)ccc(CNC(=O)c3[nH]cnc3Cl)c2F)cc(C2CC2)c1 [Example 152, 4-chloro-N-({4-chloro-3-[(3-cyano-5-cyclopropylphenyl)oxy]-2-fluorophenyl}methyl)-1H-imidazole-5-carboxamide] | < 10
C=C(C)c1cc(C#N)cc(Oc2c(Cl)ccc(CNC(=O)c3[nH]cnc3Cl)c2F)c1 [Example 158, 4-chloro-N-[(4-chloro-3-{[3-cyano-5-(1-methylethenyl)phenyl]oxy}-2-fluorophenyl)methyl]-1H-imidazole-5-carboxamide] | < 10

Same assay, conditions: Human immunodeficiency virus 1, HeLa, HeLa-CD4-LTR-β-gal cells, wild type virus; read-out: WTRVA activity level

Structure (SMILES) | IC50 [nM]
N#Cc1cc(Cl)cc(Oc2c(Cl)ccc(CNC(=O)c3cc4cccc(N)c4[nH]3)c2F)c1 [Example 113, 7-amino-N-({4-chloro-3-[(3-chloro-5-cyanophenyl)oxy]-2-fluorophenyl}methyl)-1H-indole-2-carboxamide] | < 10
N#Cc1cc(Cl)cc(Oc2c(Cl)ccc(CNC(=O)c3cc4c5c(ccc4[nH]3)N(C(N)=O)CC5)c2F)c1 [Example 44, N^2-({4-chloro-3-[(3-chloro-5-cyanophenyl)oxy]-2-fluorophenyl}methyl)-7,8-dihydropyrrolo[3,2-e]indole-2,6(3H)-dicarboxamide] | < 10
N#Cc1cc(Cl)cc(Oc2c(Cl)ccc(CNC(=O)c3cn(C(c4ccccc4)(c4ccccc4)c4ccccc4)cn3)c2F)c1 [Example 83, N-({4-chloro-3-[(3-chloro-5-cyanophenyl)oxy]-2-fluorophenyl}methyl)-1-(triphenylmethyl)-1H-imidazole-4-carboxamide] | > 1000
N#Cc1cc(Cl)cc(Oc2c(Cl)ccc(CNC(=O)c3[nH]c4cc(OCCO)ccc4c3Br)c2F)c1 [Example 141, 3-Bromo-N-({4-chloro-3-[(3-chloro-5-cyanophenyl)oxy]-2-fluorophenyl}methyl)-6-[(2-hydroxyethyl)oxy]-1H-indole-2-carboxamide] | < 10
N#Cc1cc(Cl)cc(Oc2c(Cl)ccc(CNC(=O)c3n[nH]c([N+](=O)[O-])c3Br)c2F)c1 [Example 69, 4-bromo-N-({4-chloro-3-[(3-chloro-5-cyanophenyl)oxy]-2-fluorophenyl}methyl)-5-nitro-1H-pyrazole-3-carboxamide trifluoroacetate] | 10 to 1000
CN(C)CCOc1ccc2[nH]c(C(=O)NCc3ccc(Cl)c(Oc4cc(Cl)cc(C#N)c4)c3F)cc2c1 [Example 105, N-({4-chloro-3-[(3-chloro-5-cyanophenyl)oxy]-2-fluorophenyl}methyl)-5-{[2-(dimethylamino)ethyl]oxy}-1H-indole-2-carboxamide] | < 10
CSc1nc(C(=O)NCc2ccc(Cl)c(Oc3cc(Cl)cc(C#N)c3)c2F)cn1C(c1ccccc1)(c1ccccc1)c1ccccc1 [Example 65, N-({4-chloro-3-[(3-chloro-5-cyanophenyl)oxy]-2-fluorophenyl}methyl)-2-(methylthio)-1-(triphenylmethyl)-1H-imidazole-4-carboxamide trifluoroacetate] | 10 to 1000
COc1ccc2[nH]c(C(=O)NCc3ccc(Cl)c(Oc4cc(Cl)cc(C#N)c4)c3F)cc2c1 [Example 20, N-({4-chloro-3-[(3-chloro-5-cyanophenyl)oxy]-2-fluorophenyl}methyl)-5-(methyloxy)-1H-indole-2-carboxamide] | 10 to 1000
CCc1nc(Cl)c(C(=O)NCc2ccc(Cl)c(Oc3cc(Cl)cc(C#N)c3)c2F)[nH]1 [Example 77, 4-chloro-N-({4-chloro-3-[(3-chloro-5-cyanophenyl)oxy]-2-fluorophenyl}methyl)-2-ethyl-1H-imidazole-5-carboxamide trifluoroacetate] | < 10
N#Cc1cc(Cl)cc(Oc2c(Cl)ccc(CNC(=O)c3cc4cc(F)ccc4[nH]3)c2F)c1 [Example 41, N-({4-chloro-3-[(3-chloro-5-cyanophenyl)oxy]-2-fluorophenyl}methyl)-5-fluoro-1H-indole-2-carboxamide] | 10 to 1000
N#Cc1cc(Cl)cc(Oc2c(Cl)ccc(CNC(=O)c3cc4cc(NC(=O)c5ccncc5)ccc4[nH]3)c2F)c1 [Example 114, N-({4-chloro-3-[(3-chloro-5-cyanophenyl)oxy]-2-fluorophenyl}methyl)-5-[(4-pyridinylcarbonyl)amino]-1H-indole-2-carboxamide] | < 10
N#Cc1cc(Cl)cc(Oc2cc(CNC(=O)c3ccc(S(N)(=O)=O)cc3Cl)ccc2Cl)c1 [Example 4, 4-(aminosulfonyl)-2-chloro-N-({4-chloro-3-[(3-chloro-5-cyanophenyl)oxy]phenyl}methyl)benzamide trifluoroacetate] | 10 to 1000
CS(=O)(=O)c1cc(F)cc2cc(C(=O)NCc3ccc(Cl)c(Oc4cc(Cl)cc(C#N)c4)c3F)[nH]c12 [Example 33, N-({4-chloro-3-[(3-chloro-5-cyanophenyl)oxy]-2-fluorophenyl}methyl)-5-fluoro-7-(methylsulfonyl)-1H-indole-2-carboxamide] | 10 to 1000
CN(Cc1ccc(Cl)c(Oc2cc(Cl)cc(C#N)c2)c1F)C(=O)c1ccc[nH]1 [Example 129, N-({4-chloro-3-[(3-chloro-5-cyanophenyl)oxy]-2-fluorophenyl}methyl)-N-methyl-1H-pyrrole-2-carboxamide] | < 10
COc1cccc2[nH]c(C(=O)NCc3ccc(Cl)c(Oc4cc(Cl)cc(C#N)c4)c3F)cc12 [Example 34, N-({4-chloro-3-[(3-chloro-5-cyanophenyl)oxy]-2-fluorophenyl}methyl)-4-(methyloxy)-1H-indole-2-carboxamide] | < 10
N#Cc1cc(Cl)cc(Oc2cc(CNC(=O)c3cc4cc([N+](=O)[O-])ccc4[nH]3)ccc2Cl)c1 [Example 9, N-({4-chloro-3-[(3-chloro-5-cyanophenyl)oxy]phenyl}methyl)-5-nitro-1H-indole-2-carboxamide] | > 1000
N#Cc1cc(Cl)cc(Oc2c(Cl)ccc(CNC(=O)c3cc4ccc(O)cc4[nH]3)c2F)c1 [Example 36, N-({4-chloro-3-[(3-chloro-5-cyanophenyl)oxy]-2-fluorophenyl}methyl)-6-hydroxy-1H-indole-2-carboxamide] | < 10
N#Cc1cc(Cl)cc(Oc2c(Cl)ccc(CNC(=O)c3cc4ccc(C#N)cc4[nH]3)c2F)c1 [Example 79, N-({4-chloro-3-[(3-chloro-5-cyanophenyl)oxy]-2-fluorophenyl}methyl)-6-cyano-1H-indole-2-carboxamide trifluoroacetate] | < 10
Cc1nc2ccccn2c1C(=O)NCc1ccc(Cl)c(Oc2cc(Cl)cc(C#N)c2)c1F [Example 97, N-({4-chloro-3-[(3-chloro-5-cyanophenyl)oxy]-2-fluorophenyl}methyl)-2-methylimidazo[1,2-a]pyridine-3-carboxamide trifluoroacetate] | < 10
CN(C)c1ccc2[nH]c(C(=O)NCc3ccc(Cl)c(Oc4cc(Cl)cc(C#N)c4)c3F)cc2c1 [Example 126, N-({4-chloro-3-[(3-chloro-5-cyanophenyl)oxy]-2-fluorophenyl}methyl)-5-(dimethylamino)-1H-indole-2-carboxamide] | < 10
COc1n[n+]([O-])cc2cc(C(=O)NCc3ccc(Cl)c(Oc4cc(Cl)cc(C#N)c4)c3F)[nH]c12 [Example 82, N-({4-chloro-3-[(3-chloro-5-cyanophenyl)oxy]-2-fluorophenyl}methyl)-7-(methyloxy)-1H-pyrrolo[2,3-d]pyridazine-2-carboxamide 5-oxide trifluoroacetate] | 10 to 1000
Cn1ccnc1C(=O)NCc1ccc(Cl)c(Oc2cc(Cl)cc(C#N)c2)c1F [Example 72, N-({4-chloro-3-[(3-chloro-5-cyanophenyl)oxy]-2-fluorophenyl}methyl)-1-methyl-1H-imidazole-2-carboxamide trifluoroacetate] | 10 to 1000
